Columns and labels:
Experiment in all cases: MTT cell proliferation assay
Assay type in all cases: cell-based
3T3 cells = details: Mus musculus, NIH3T3, approximately 64-72 hours
Procedure: (§1) The MTT cell proliferation assay was used to study the cytotoxic properties of the compounds. The assay was performed according to the method described by Roche Molecular Biochemicals, with minor modifications. The assay is based on the cleavage of the tetrazolium salt, MTT, in the presence of an electron-coupling reagent. The water-insoluble formazan salt produced must be solubilized in an additional step. Cells grown in a 96-well tissue culture plate were incubated with the MTT solution for approximately 4 hours. After this incubation period, a water-insoluble formazan dye formed. After solubilization, the formazan dye was quantitated using a scanning multi-well spectrophotometer (ELISA reader). […] The cells were seeded at 5,000-10,000 cells in each well of 96-well plate in 100 μL of fresh culture medium and were allowed to attach overnight. The stock solutions of the compounds were diluted in 100 μL cell culture medium to obtain eight concentrations of each test compound, ranging from 1 nM to 30 μM. […] All optical densities were measured at 490 nm using a Vmax Kinetic Microplate Reader (Molecular Devices). In most cases, the assay was performed in duplicate and the results were presented as a mean percent inhibition to the negative control±SE. The following formula was used to calculate the percent of inhibition: Inhibition (%)=(1−(ODo/OD))×100.
(§2) The compounds were tested against Z138, MM1S and 3T3 cells. The Z138 cell line is a mature B-cell acute lymphoblastic leukemia cell line derived from a patient with chronic lumphocytic leukemia. The MM1S cell line was established from the peripheral blood of a human multiple myeloma patient. 3T3 cells are standard fibroblast cells; they were originally isolated from Swiss mouse embryo tissue.

MM1S cells = details: Homo sapiens, MM1.S, approximately 64-72 hours
Procedure: as §1, §2

Z138 cells = details: Homo sapiens, Z-138, approximately 64-72 hours
Procedure: as §1, §2

Row | Structure (SMILES) | IC50 (MM1S cells) [µM] | IC50 (3T3 cells) [µM] | IC50 (Z138 cells) [µM]
1 | O=C(O)/C(=C/n1cnc(-c2cc(C(F)(F)F)cc(C(F)(F)F)c2)n1)c1cccnc1 [Compound 103, (E)-3-(3-(3,5-bis(trifluoromethyl)phenyl)-1H-1,2,4-triazol-1-yl)-2-(pyridin-3-yl)acrylic acid] | > 30 | > 30 | > 30
2 | COc1ccc(/C(=C\n2cnc(-c3cc(C(F)(F)F)cc(C(F)(F)F)c3)n2)C(=O)O)cn1 [Compound 121, (E)-3-(3-(3,5-bis(trifluoromethyl)phenyl)-1H-1,2,4-triazol-1-yl)-2-(6-methoxypyridin-3-yl) acrylic acid] | > 30 |  | 
3 | O=C(O)/C(=C/n1cnc(-c2cc(C(F)(F)F)cc(C(F)(F)F)c2)n1)c1cncc(F)c1 [Compound 125, (E)-3-(3-(3,5-bis(trifluoromethyl)phenyl)-1H-1,2,4-triazol-1-yl)-2-(5-fluoropyridin-3-yl)acrylic acid] | > 30 |  | 
4 | NC(=O)/C(=C/n1cnc(-c2cc(C(F)(F)F)cc(C(F)(F)F)c2)n1)c1ccc(-c2ccccc2)c(F)c1 [Compound 150, (E)-3-(3-(3,5-bis(trifluoromethyl)phenyl)-1H-1,2,4-triazol-1-yl)-2-(2-fluorobiphenyl-4-yl)acrylamide] | 5 to 30 | > 30 | 5 to 30
5 | O=C(O)/C(=C/n1cnc(-c2cc(C(F)(F)F)cc(C(F)(F)F)c2)n1)c1ccncc1 [Compound 107, (E)-3-(3-(3,5-bis(trifluoromethyl)phenyl)-1H-1,2,4-triazol-1-yl)-2-(pyridin-4-yl)acrylic acid] | 5 to 30 |  | 
6 | NC(=O)/C(=C/n1cnc(-c2cc(C(F)(F)F)cc(C(F)(F)F)c2)n1)c1ccc2cn[nH]c2c1 [Compound 152, (E)-3-(3-(3,5-bis(trifluoromethyl)phenyl)-1H-1,2,4-triazol-1-yl)-2-(1H-indazol-6-yl)acrylamide] | 0.1 to 5 | > 30 | 0.1 to 5
7 | NC(=O)/C(=C\n1cnc(-c2cc(C(F)(F)F)cc(C(F)(F)F)c2)n1)c1ccc(F)nc1 [Compound 154, (Z)-3-(3-(3,5-bis(trifluoromethyl)phenyl)-1H-1,2,4-triazol-1-yl)-2-(6-fluoropyridin-3-yl)acrylamide] | 0.1 to 5 |  | 
8 | NC(=O)/C(=C/n1cnc(-c2cc(C(F)(F)F)cc(C(F)(F)F)c2)n1)c1ccoc1 [Compound 129, (E)-3-(3-(3,5-bis(trifluoromethyl)phenyl)-1H-1,2,4-triazol-1-yl)-2-(furan-3-yl) acrylamide] | 0.1 to 5 |  | 
9 | N#C/C(=C/n1cnc(-c2cc(C(F)(F)F)cc(C(F)(F)F)c2)n1)c1nccs1 [Compound 110, (Z)-3-(3-(3,5-bis(trifluoromethyl)phenyl)-1H-1,2,4-triazol-1-yl)-2-(thiazol-2-yl)acrylonitrile] | 0.1 to 5 |  | 
10 | Cc1noc(C)c1/C(=C\n1cnc(-c2cc(C(F)(F)F)cc(C(F)(F)F)c2)n1)C(=O)O [Compound 117, (E)-3-(3-(3,5-bis(trifluoromethyl)phenyl)-1H-1,2,4-triazol-1-yl)-2-(3,5-dimethylisoxazol-4-yl) acrylic acid] | > 30 |  | 
11 | CN(C)C(=O)/C(=C/n1cnc(-c2cc(C(F)(F)F)cc(C(F)(F)F)c2)n1)c1cccnc1 [Compound 112, (E)-3-(3-(3,5-bis(trifluoromethyl)phenyl)-1H-1,2,4-triazol-1-yl)-N,N-dimethyl-2-(pyridin-3-yl)acrylamide] | > 30 |  | 
12 | COc1ccc(/C(=C\n2cnc(-c3cc(C(F)(F)F)cc(C(F)(F)F)c3)n2)C(N)=O)cn1 [Compound 127, (E)-3-(3-(3,5-bis-(trifluoromethyl)-phenyl)-1H-1,2,4-triazol-1-yl)-2-(6-methoxypyridin-3-yl)acrylamide] | 0.1 to 5 |  | 
13 | O=C(O)/C(=C/n1cnc(-c2cc(C(F)(F)F)cc(C(F)(F)F)c2)n1)c1cncnc1 [Compound 123, (E)-3-(3-(3,5-bis(trifluoromethyl)phenyl)-1H-1,2,4-triazol-1-yl)-2-(pyrimidin-5-yl) acrylic acid] | > 30 |  | 
14 | O=C(O)/C(=C/n1cnc(-c2cc(C(F)(F)F)cc(C(F)(F)F)c2)n1)c1ccoc1 [Compound 128, (E)-3-(3-(3,5-bis(trifluoromethyl)phenyl)-1H-1,2,4-triazol-1-yl)-2-(furan-3-yl) acrylic acid] | > 30 |  | 
15 | NC(=O)/C(=C/n1cnc(-c2cc(C(F)(F)F)cc(C(F)(F)F)c2)n1)c1ccc(-c2cccnc2)cc1 [Compound 151, (E)-3-(3-(3,5-bis(trifluoromethyl)phenyl)-1H-1,2,4-triazol-1-yl)-2-(4-(pyridin-3-yl)phenyl)acrylamide] | 0.1 to 5 | > 30 | 5 to 30

Second part, led by results:

Row | IC50 (MM1S cells) [µM] | Structure (SMILES) | IC50 (3T3 cells) [µM] | IC50 (Z138 cells) [µM]
16 | < 0.1 | NC(=O)/C(=C/n1cnc(-c2cc(C(F)(F)F)cc(C(F)(F)F)c2)n1)c1cccnc1F [Compound 135, (E)-3-(3-(3,5-bis(trifluoromethyl)phenyl)-1H-1,2,4-triazol-1-yl)-2-(2-fluoropyridin-3-yl)acrylamide] | > 30 | 0.1 to 5
17 | 0.1 to 5 | CC(C)OC(=O)/C(=C/n1cnc(-c2cc(C(F)(F)F)cc(C(F)(F)F)c2)n1)c1nccs1 [Compound 109, isopropyl (Z)-3-(3-(3,5-bis(trifluoromethyl)phenyl)-1H-1,2,4-triazol-1-yl)-2-(thiazol-2-yl)acrylate] |  | 
18 | 0.1 to 5 | NC(=O)/C(=C/n1cnc(-c2cc(C(F)(F)F)cc(C(F)(F)F)c2)n1)c1ccccc1 [Compound 146, (E)-3-(3-(3,5-bis(trifluoromethyl)phenyl)-1H-1,2,4-triazol-1-yl)-2-phenylacrylamide] | > 30 | 0.1 to 5
19 | 0.1 to 5 | NC(=O)/C(=C/n1cnc(-c2cc(C(F)(F)F)cc(C(F)(F)F)c2)n1)c1ccc(F)nc1 [Compound 139, (E)-3-(3-(3,5-bis(trifluoromethyl)phenyl)-1H-1,2,4-triazol-1-yl)-2-(6-fluoropyridin-3-yl)acrylamide] | > 30 | 0.1 to 5
20 | 0.1 to 5 | NC(=O)/C(=C\n1cnc(-c2cc(C(F)(F)F)cc(C(F)(F)F)c2)n1)c1cccnc1F [Compound 157, (Z)-3-(3-(3,5-bis(trifluoromethyl)phenyl)-1H-1,2,4-triazol-1-yl)-2-(2-fluoropyridin-3-yl)acrylamide] | 0.1 to 5 | 0.1 to 5
21 | 0.1 to 5 | NC(=O)/C(=C/n1cnc(-c2cc(C(F)(F)F)cc(C(F)(F)F)c2)n1)c1cccnc1Cl [Compound 144, (E)-3-(3-(3,5-bis(trifluoromethyl)phenyl)-1H-1,2,4-triazol-1-yl)-2-(2-chloropyridin-3-yl)acrylamide] | > 30 | 0.1 to 5
22 | 0.1 to 5 | CC(C)OC(=O)/C(=C/n1cnc(-c2cc(C(F)(F)F)cc(C(F)(F)F)c2)n1)c1ccncc1 [Compound 106, isopropyl (E)-3-(3-(3,5-bis(trifluoromethyl)phenyl)-1H-1,2,4-triazol-1-yl)-2-(pyridin-4-yl)acrylate] |  | 
23 | < 0.1 | NC(=O)/C(=C/n1cnc(-c2cc(C(F)(F)F)cc(C(F)(F)F)c2)n1)c1cccc(F)n1 [Compound 134, (E)-3-(3-(3,5-bis(trifluoromethyl)phenyl)-1H-1,2,4-triazol-1-yl)-2-(6-fluoropyridin-2-yl)acrylamide] | 0.1 to 5 | 0.1 to 5
24 | 0.1 to 5 | Cn1cc(/C(=C\n2cnc(-c3cc(C(F)(F)F)cc(C(F)(F)F)c3)n2)C(=O)O)cn1 [Compound 131, (E)-3-(3-(3,5-bis(trifluoromethyl)phenyl)-1H-1,2,4-triazol-1-yl)-2-(1-methyl-1H-pyrazol-4-yl)acrylic acid] |  | 
25 | < 0.1 | NC(=O)/C(=C/n1cnc(-c2cc(C(F)(F)F)cc(C(F)(F)F)c2)n1)c1cncc(F)c1 [Compound 126, (E)-3-(3-(3,5-Bis(trifluoromethyl)phenyl)-1H-1,2,4-triazol-1-yl)-2-(5-fluoropyridin-3-yl)acrylamide] | > 30 | < 0.1
26 | 0.1 to 5 | CC(C)OC(=O)/C(=C/n1cnc(-c2cc(C(F)(F)F)cc(C(F)(F)F)c2)n1)c1ccoc1 [Compound 122, isopropyl (E)-3-(3-(3,5-bis (trifluoromethyl)phenyl)-1H-1,2,4-triazol-1-yl)-2-(furan-3-yl) acrylate] |  | 
27 | < 0.1 | NC(=O)/C(=C/n1cnc(-c2cc(C(F)(F)F)cc(C(F)(F)F)c2)n1)c1ccnnc1 [Compound 133, (E)-3-(3-(3,5-bis(trifluoromethyl)phenyl)-1H-1,2,4-triazol-1-yl)-2-(pyridazin-4-yl)acrylamide] | 5 to 30 | < 0.1
28 | < 0.1 | NC(=O)/C(=C\n1cnc(-c2cc(C(F)(F)F)cc(C(F)(F)F)c2)n1)c1cncnc1 [Compound 153, (Z)-3-(3-(3,5-bis(trifluoromethyl)phenyl)-1H-1,2,4-triazol-1-yl)-2-(pyrimidin-5-yl)acrylamide] | > 30 | 0.1 to 5
